Laboratory results: ChEMBL document CHEMBL1287722, “Azaindole N-methyl hydroxamic acids as HIV-1 integrase inhibitors-II. The impact of physicochemical properties on ADME and PK” (Bioorg Med Chem Lett, 2010)
The source made the active and inactive calls. The calls are words filed in the database; no cut-off is given here.

Legend:
[1] = biological target: Human immunodeficiency virus type 1 integrase (Human immunodeficiency virus 1, UniProt Q7ZJM1); assay: Inhibition of HIV1 RF integrase after 50 mins by strand transfer scintillation proximity assay
[2] = Cytotoxicity against human CEM-SS cells by XTT assay; format: cell-based
[3] = tested on: Human immunodeficiency virus 1; assay: Antiviral activity against HIV1 RF infected in human CEM-SS cells assessed as inhibition of virus-induced cytopathic effect after 6 days by XTT assay; format: functional, organism-based; details: Human immunodeficiency virus 1, RF, 144 h
[4] = Metabolic stability in human hepatocyte assessed as extraction ratio at 4 hrs; format: ADME, cell-based; details: hepatocytes
Cytochrome P450 2C19 = Cytochrome P450 2C19 (Homo sapiens, UniProt P33261); assay: Inhibition of CYP2C19; format: ADME
Cytochrome P450 2D6 = Cytochrome P450 2D6 (Homo sapiens, UniProt P10635); assay: Inhibition of CYP2D6; format: ADME
[5] = Blood clearance in human; format: ADME, organism-based; details: whole blood
[6] = Oral bioavailability in human; format: ADME, organism-based; details: in vivo
[7] = Volume of distribution at steady state in dog at 1 mg/kg, iv and 5 mg/kg, po; format: ADME, organism-based, Canis lupus familiaris; details: in vivo, read-out: Vdss
[8] = Inhibition of matrix metalloprotease
Cytochrome P450 2C8 = biological target: T1, Cytochrome P450 2C8 (Homo sapiens, UniProt P10632); assay: Inhibition of CYP2C8; format: ADME
T1 sequence (P10632 whole entry): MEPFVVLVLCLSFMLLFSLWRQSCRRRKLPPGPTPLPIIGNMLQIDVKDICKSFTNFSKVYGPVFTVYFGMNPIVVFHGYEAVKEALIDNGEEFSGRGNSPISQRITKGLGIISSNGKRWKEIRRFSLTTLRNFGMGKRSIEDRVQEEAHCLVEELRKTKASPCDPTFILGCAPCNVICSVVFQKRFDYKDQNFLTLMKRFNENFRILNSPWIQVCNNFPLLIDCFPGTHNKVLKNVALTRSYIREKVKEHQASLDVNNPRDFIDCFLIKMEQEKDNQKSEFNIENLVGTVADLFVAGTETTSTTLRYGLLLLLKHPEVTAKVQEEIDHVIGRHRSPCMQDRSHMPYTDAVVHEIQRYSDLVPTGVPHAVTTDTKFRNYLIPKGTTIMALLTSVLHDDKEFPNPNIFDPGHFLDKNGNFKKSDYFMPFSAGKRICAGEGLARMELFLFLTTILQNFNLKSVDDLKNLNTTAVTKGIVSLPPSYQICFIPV

Hepacivirus hominis = assay: Inhibition of HCV RNA-directed RNA polymerase
Cytochrome P450 1A2 = biological target: T2, Cytochrome P450 1A2 (Homo sapiens, UniProt P05177); assay: Inhibition of CYP1A2; format: ADME
T2 sequence (P05177 whole entry): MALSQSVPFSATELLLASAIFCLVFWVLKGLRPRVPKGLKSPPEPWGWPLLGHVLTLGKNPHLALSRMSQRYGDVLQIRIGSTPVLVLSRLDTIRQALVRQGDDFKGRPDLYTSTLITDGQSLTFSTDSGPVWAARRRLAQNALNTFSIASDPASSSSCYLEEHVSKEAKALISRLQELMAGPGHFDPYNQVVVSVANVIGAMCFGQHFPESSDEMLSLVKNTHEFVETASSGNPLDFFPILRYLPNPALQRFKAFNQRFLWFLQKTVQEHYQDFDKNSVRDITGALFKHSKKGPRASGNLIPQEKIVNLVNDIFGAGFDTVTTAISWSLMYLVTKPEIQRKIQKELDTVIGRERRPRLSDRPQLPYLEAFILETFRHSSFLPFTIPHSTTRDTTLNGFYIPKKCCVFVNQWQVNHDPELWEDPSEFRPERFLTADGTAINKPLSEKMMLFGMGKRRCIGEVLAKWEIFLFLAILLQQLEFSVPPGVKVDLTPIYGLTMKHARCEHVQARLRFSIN

[9] = biological target: Voltage-gated inwardly rectifying potassium channel KCNH2 (Homo sapiens, UniProt Q12809); assay: Inhibition of human ERG
Cytochrome P450 3A4 = Cytochrome P450 3A4 (Homo sapiens, UniProt P08684); assay: Inhibition of CYP3A4; format: ADME
[10] = Half life in dog at 1 mg/kg, iv and 5 mg/kg, po; format: ADME, organism-based, Canis lupus familiaris; details: in vivo
Cytochrome P450 2C9 = Cytochrome P450 2C9 (Homo sapiens, UniProt P11712); assay: Inhibition of CYP2C9; format: ADME
[11] = Oral bioavailability in dog at 1 mg/kg, iv and 5 mg/kg, po; format: ADME, organism-based, Canis lupus familiaris; details: in vivo
[12] = Plasma clearance in dog at 1 mg/kg, iv and 5 mg/kg, po; format: ADME, organism-based, Canis lupus familiaris
[13] = Volume of distribution at steady state in human; format: ADME, organism-based; details: in vivo, read-out: Vdss
[14] = Inhibition of magnesium dependent protein kinase

Sequence of Human immunodeficiency virus type 1 integrase (Q7ZJM1 whole entry): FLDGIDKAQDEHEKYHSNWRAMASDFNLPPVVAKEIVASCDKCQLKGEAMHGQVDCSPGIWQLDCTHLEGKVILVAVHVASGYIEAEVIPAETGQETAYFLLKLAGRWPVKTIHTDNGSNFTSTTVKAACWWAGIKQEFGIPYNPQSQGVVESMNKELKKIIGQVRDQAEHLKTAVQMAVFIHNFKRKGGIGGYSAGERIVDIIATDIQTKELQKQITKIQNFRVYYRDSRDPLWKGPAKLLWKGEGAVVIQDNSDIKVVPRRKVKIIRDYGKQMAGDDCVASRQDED
Sequence of Cytochrome P450 2D6 (P10635 whole entry): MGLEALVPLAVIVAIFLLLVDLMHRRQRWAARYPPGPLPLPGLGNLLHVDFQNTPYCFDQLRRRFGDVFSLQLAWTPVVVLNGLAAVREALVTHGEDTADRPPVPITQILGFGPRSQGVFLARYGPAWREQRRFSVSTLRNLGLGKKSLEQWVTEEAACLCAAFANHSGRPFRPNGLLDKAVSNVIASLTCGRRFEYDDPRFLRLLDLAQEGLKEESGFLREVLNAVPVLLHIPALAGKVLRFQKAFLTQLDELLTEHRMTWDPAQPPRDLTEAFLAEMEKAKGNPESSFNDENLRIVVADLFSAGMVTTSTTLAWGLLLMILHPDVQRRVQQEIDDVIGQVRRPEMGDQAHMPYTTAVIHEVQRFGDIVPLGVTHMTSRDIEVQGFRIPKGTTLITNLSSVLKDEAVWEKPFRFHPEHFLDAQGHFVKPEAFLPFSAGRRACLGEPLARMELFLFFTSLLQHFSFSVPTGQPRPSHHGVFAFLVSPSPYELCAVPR
Sequence of Cytochrome P450 2C9 (P11712 whole entry): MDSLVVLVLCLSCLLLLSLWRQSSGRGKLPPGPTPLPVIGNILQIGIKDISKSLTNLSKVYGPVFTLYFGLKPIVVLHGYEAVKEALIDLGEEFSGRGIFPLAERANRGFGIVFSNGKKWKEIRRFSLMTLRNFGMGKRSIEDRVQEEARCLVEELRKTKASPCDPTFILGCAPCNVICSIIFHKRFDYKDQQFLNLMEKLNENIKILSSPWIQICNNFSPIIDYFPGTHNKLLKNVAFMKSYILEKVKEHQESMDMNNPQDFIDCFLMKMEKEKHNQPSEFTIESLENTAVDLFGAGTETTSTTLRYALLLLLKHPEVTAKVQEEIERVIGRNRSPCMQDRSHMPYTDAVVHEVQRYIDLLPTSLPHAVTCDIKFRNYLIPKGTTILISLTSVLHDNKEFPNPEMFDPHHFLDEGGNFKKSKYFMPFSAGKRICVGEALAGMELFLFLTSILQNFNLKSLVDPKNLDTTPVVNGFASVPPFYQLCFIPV
Sequence of Voltage-gated inwardly rectifying potassium channel KCNH2 (Q12809 whole entry): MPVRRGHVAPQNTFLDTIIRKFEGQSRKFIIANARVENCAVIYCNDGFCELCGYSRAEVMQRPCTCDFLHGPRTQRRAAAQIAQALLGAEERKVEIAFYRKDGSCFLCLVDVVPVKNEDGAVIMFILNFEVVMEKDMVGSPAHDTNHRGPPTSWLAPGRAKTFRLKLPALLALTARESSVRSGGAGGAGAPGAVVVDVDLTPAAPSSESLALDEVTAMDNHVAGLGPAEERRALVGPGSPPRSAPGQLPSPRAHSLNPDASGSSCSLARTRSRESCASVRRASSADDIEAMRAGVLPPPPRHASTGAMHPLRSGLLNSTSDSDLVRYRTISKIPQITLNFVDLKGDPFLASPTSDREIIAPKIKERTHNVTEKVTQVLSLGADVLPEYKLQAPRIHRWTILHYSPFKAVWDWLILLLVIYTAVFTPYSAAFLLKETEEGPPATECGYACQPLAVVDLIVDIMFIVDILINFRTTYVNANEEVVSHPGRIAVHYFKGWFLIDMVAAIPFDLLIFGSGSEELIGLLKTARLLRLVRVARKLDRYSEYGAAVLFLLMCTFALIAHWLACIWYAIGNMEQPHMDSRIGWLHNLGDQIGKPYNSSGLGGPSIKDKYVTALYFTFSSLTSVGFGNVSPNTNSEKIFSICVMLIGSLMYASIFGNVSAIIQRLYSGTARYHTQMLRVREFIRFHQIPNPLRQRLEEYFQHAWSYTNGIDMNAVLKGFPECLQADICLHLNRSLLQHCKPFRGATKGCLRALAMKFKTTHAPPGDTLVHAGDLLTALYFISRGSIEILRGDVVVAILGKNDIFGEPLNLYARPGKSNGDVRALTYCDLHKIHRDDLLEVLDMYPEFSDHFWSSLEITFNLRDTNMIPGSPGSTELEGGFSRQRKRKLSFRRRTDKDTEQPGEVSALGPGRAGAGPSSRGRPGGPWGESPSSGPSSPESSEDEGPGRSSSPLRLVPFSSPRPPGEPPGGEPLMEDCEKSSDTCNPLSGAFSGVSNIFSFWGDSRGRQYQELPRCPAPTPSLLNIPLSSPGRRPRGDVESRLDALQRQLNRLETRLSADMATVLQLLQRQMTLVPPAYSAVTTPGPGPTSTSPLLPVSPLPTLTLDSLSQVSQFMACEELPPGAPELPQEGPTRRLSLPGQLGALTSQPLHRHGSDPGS
Sequence of Cytochrome P450 2C19 (P33261 whole entry): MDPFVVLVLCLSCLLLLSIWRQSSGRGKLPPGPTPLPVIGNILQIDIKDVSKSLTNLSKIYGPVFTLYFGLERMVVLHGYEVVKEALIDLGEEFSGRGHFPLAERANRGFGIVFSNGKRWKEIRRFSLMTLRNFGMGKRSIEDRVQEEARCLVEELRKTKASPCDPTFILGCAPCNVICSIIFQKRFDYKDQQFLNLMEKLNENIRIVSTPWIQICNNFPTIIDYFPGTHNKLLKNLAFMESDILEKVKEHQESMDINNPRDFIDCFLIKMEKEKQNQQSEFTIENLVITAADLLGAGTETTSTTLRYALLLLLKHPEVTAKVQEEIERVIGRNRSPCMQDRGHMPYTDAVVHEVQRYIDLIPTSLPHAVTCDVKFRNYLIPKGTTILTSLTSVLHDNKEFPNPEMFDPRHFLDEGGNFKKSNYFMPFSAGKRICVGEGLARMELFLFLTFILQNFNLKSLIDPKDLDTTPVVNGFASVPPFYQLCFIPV
Sequence of Cytochrome P450 3A4 (P08684 whole entry): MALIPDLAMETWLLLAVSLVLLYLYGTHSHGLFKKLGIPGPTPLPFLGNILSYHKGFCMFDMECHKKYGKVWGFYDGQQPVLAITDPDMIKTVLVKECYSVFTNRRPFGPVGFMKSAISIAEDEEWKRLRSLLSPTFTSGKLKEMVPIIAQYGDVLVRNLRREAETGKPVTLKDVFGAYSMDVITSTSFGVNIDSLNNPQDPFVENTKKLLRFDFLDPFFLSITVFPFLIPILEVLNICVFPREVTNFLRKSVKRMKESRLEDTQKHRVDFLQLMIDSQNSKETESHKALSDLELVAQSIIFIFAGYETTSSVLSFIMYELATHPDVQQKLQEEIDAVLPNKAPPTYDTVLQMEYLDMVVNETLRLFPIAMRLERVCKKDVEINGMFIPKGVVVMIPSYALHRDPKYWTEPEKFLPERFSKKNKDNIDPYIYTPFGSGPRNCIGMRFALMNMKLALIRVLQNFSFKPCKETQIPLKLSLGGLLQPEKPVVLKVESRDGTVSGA

SMILES | IC50 [1] | CC50 [2] | EC50 [3] | hepatic extraction ratio at 4 h [4] | further results
CCOCCOCc1cn(Cc2ccc(F)cc2)c2cnc(C(=O)N(C)O)cc12 | 308 nM | 81000 nM | 57 nM | 0.57 | 
CN(O)C(=O)c1cc2ccn(Cc3ccc(F)cc3F)c2cn1 | 250 nM | 200000 nM | 39 nM |  | 
CC(C)NC(=O)c1cn(Cc2ccc(F)cc2)c2cnc(C(=O)N(C)O)cc12 | 251 nM | > 100000 nM | 110 nM | 0.25 | 
CN(O)C(=O)c1cc2c(COC3CCOCC3)cn(Cc3ccc(F)cc3)c2cn1 | 313 nM | > 100000 nM | 57 nM | 0.86 | 
COCCOCCCc1cn(Cc2ccc(F)cc2)c2cnc(C(=O)N(C)O)cc12 | 552 nM | > 10000 nM | 220 nM | 0.97 | 
COCCOCc1cn(Cc2ccc(F)cc2)c2cnc(C(=O)N(C)O)cc12 | 382 nM | > 100000 nM | 29 nM | 0.51 | 
CN(O)C(=O)c1cc2c(CCCO)cn(Cc3ccc(F)cc3)c2cn1 | 340 nM | > 10000 nM | 41 nM | 1 | 
COCc1cn(Cc2ccc(F)cc2)c2cnc(C(=O)N(C)O)cc12 | 242 nM | 266000 nM | 41 nM | 1 | 
CN(O)C(=O)c1cc2c(C(=O)NCCN3CCOCC3)cn(Cc3ccc(F)cc3)c2cn1 | 503 nM | 32000 nM | 210 nM | 0.25 | 
CN(O)C(=O)c1cc2c(CN3CCC(O)C3)cn(Cc3ccc(F)cc3)c2cn1 (stereo not given) | 1420 nM | > 100000 nM | 747 nM | 0.55 | 
CN(O)C(=O)c1cc2c(C(=O)N3CCC[C@@H]3CO)cn(Cc3ccc(F)cc3)c2cn1 | 319 nM | > 32000 nM | 170 nM | 0.2 | 
CN(O)C(=O)c1cc2c(CCCN3CCOCC3)cn(Cc3ccc(F)cc3)c2cn1 | 559 nM | > 10000 nM | 470 nM | 0.98 | 
CN(O)C(=O)c1cc2c(CN3CCC[C@H]3C(N)=O)cn(Cc3ccc(F)cc3)c2cn1 |  | 216000 nM |  |  | IC50 (Cytochrome P450 2C19): > 30000 nM; IC50 (Cytochrome P450 2D6): > 30000 nM; clearance [5]: 5.5 mL/min/kg; bioavailability [6]: 41%; Vd [7]: 2.32 L/kg; IC50 [8]: > 50000 nM; IC50 (Cytochrome P450 2C8): > 30000 nM; inhibition (Hepacivirus hominis): inactive; IC50 (Cytochrome P450 1A2): > 30000 nM; IC50 [9]: > 30000 nM; IC50 (Cytochrome P450 3A4): > 30000 nM; half-life [10]: 6.2 h; IC50 (Cytochrome P450 2C9): > 30000 nM; bioavailability [11]: 53%; clearance [12]: 15 mL/min/kg; Vd [13]: 2.15 L/kg; IC50 [14]: > 1000 nM
CN1CCN(Cc2cn(Cc3ccc(F)cc3)c3cnc(C(=O)N(C)O)cc23)CC1 | 534 nM | > 224000 nM | 220 nM | 0.55 | 
CN(O)C(=O)c1cc2c(CN3CCC[C@@H]3C(N)=O)cn(Cc3ccc(F)cc3)c2cn1 |  | > 100000 nM | 80 nM |  | 
CN(O)C(=O)c1cc2ccn(Cc3ccc(F)cc3)c2cn1 | 250 nM | 135000 nM |  |  | 
CN(O)C(=O)c1cc2c(CN3CCNC(=O)C3)cn(Cc3ccc(F)cc3)c2cn1 | 388 nM | > 100000 nM | 150 nM | 0.3 | Vd [7]: 1.8 L/kg; half-life [10]: 1.27 h; bioavailability [11]: 20%; clearance [12]: 24 mL/min/kg
CN(O)C(=O)c1cc2c(CO)cn(Cc3ccc(F)cc3)c2cn1 | 145 nM | > 266000 nM | 54 nM | 1 | 
